Holding throughout (assay type): functional
Test [1] has as its system Metaphire posthuma. In words: Anthelmintic activity against Pheretima posthuma assessed as death time.
Test [2] has as its system Metaphire posthuma. In words: Anthelmintic activity against Pheretima posthuma assessed as death time at 1 %.
Test [3] deals with Radical scavenging activity. In words: Antioxidant activity assessed as DPPH free radical scavenging activity at 20 ug/4ml after 30 mins. In general terms: DPPH is a stable violet radical that fades when it is reduced.
Test [4] concerns Metaphire posthuma. In words: Anthelmintic activity against Pheretima posthuma assessed as time taken for complete paralysis at 2 %.
Test [5] has as its system Metaphire posthuma. Description: Anthelmintic activity against Pheretima posthuma assessed as death time at 3 %.
The test system of test [6] is Metaphire posthuma. Description: Anthelmintic activity against Pheretima posthuma assessed as time taken for complete paralysis at 1 %.
The nature of test [7]: Antioxidant activity assessed as potassium ferric cyanide ion reducing power at 50 to 100 ug after 20 mins.
The test system of test [8] is Metaphire posthuma. In words: Anthelmintic activity against Pheretima posthuma assessed as death time at 2 %.
Test [9] has as its system Metaphire posthuma. Description: Anthelmintic activity against Pheretima posthuma assessed as time taken for complete paralysis.
Test [10] relates to Metaphire posthuma. In words: Anthelmintic activity against Pheretima posthuma assessed as time taken for complete paralysis at 3 %.
Test [11] is described as follows: Antioxidant activity assessed as ascorbic acid equivalent antioxidant capacity at 50 to 100 ug after 90 mins by phosphomolybdenum method.

Activity calls are given as the source filed them. No cut-off for these calls is given here.

As to `CCCSc1ccc2[nH]c(NC(=O)OC)nc2c1` [ALBENDAZOLE], the Time with Metaphire posthuma [1] was found to be 5.37 min; in the test with Metaphire posthuma [2], 7.2 min.
For the compound `Cc1cc(C(C)(C)C)c(O)c(C(C)(C)C)c1`, in test [3], the Activity came to 16.2%.
As to `Sc1nc2cc(Cl)cc(Cl)c2o1`, the Time in the test on Metaphire posthuma [4] was 3.2 min; in the test with Metaphire posthuma [1] it was 8.22 min; in the test on Metaphire posthuma [2], 9.05 min; in the test on Metaphire posthuma [5] it was 5.95 min; in the test with Metaphire posthuma [6] it was 7.27 min; in the test with Metaphire posthuma [8], 7.83 min. Further, in test [7], the result was inactive. The figures for the Activity entry (in the test on Metaphire posthuma [9]; in test [3]; in the test on Metaphire posthuma [10]) were “Dose-dependent effect”, 32.1% and “Dose-dependent effect”, respectively.
As to `S=c1[nH]nc2oc3c(Cl)cc(Cl)cc3n12`, the Time with Metaphire posthuma [4] is listed as 3.82 min; in the test on Metaphire posthuma [1], 5.48 min; with Metaphire posthuma [2], 6.48 min; in the test with Metaphire posthuma [5] it was 4.12 min; in the test with Metaphire posthuma [6], 4.29 min; with Metaphire posthuma [8], 5.49 min. The outcome in [7] and in [11] was Active. Further, the Activity entry was “Dose-dependent effect” with Metaphire posthuma [9], 74.8% in test [3] and “Dose-dependent effect” in the test on Metaphire posthuma [10].
Take `NNc1nc2cc(Cl)cc(Cl)c2o1`: the Time stood at 3.08 min with Metaphire posthuma [4]; 4.42 min in the test with Metaphire posthuma [1]; 4.77 min in the test with Metaphire posthuma [2]; 3.23 min with Metaphire posthuma [5]; 3.57 min with Metaphire posthuma [6]; 4.22 min in the test with Metaphire posthuma [8]. The outcome in test [7] and in [11] was Active. Moreover, the Activity entry with Metaphire posthuma [9] is “Dose-dependent effect”; in test [3], 81.5%; in the test with Metaphire posthuma [10] it was “Dose-dependent effect”.
With `CCOC(=O)CSc1nc2cc(Cl)cc(Cl)c2o1`, the Time is 5.28 min in the test with Metaphire posthuma [4]; 6.61 min in the test with Metaphire posthuma [1]; 7.23 min in the test on Metaphire posthuma [2]; 5.75 min with Metaphire posthuma [5]; 5.87 min in the test with Metaphire posthuma [6]; 6.37 min in the test on Metaphire posthuma [8]. In addition, the result in [7] was inactive. Further, the figures for the Activity entry (in the test with Metaphire posthuma [9]; in test [3]; in the test on Metaphire posthuma [10]) were “Dose-dependent effect”, 9.49% and “Dose-dependent effect”, respectively.
Take `O=[N+]([O-])c1ccc(NCn2nc3oc4c(Cl)cc(Cl)cc4n3c2=S)cc1`: the Time in the test with Metaphire posthuma [4] is recorded as 5.97 min; in the test on Metaphire posthuma [1], 7.95 min; in the test with Metaphire posthuma [2] it was 8.33 min; with Metaphire posthuma [5], 6.64 min; with Metaphire posthuma [6] it was 6.58 min; in the test on Metaphire posthuma [8], 7.07 min. For the same compound, the outcome in test [7] and in [11] was Active. Besides, the Activity result is “Dose-dependent effect” with Metaphire posthuma [9], 18% in test [3] and “Dose-dependent effect” in the test on Metaphire posthuma [10].
With `CCOC(=O)CSc1nnc2oc3c(Cl)cc(Cl)cc3n12`, the Time worked out at 4 min in the test on Metaphire posthuma [4]; 5.92 min in the test on Metaphire posthuma [1]; 6.13 min in the test with Metaphire posthuma [2]; 4.85 min in the test on Metaphire posthuma [5]; 4.74 min in the test on Metaphire posthuma [6]; 5.95 min with Metaphire posthuma [8]. Further, the outcome in [7] and in test [11] was Active. For the same compound, the Activity entry is “Dose-dependent effect” in the test with Metaphire posthuma [9], 65.7% in [3] and “Dose-dependent effect” in the test on Metaphire posthuma [10].

The record behind these values is ChEMBL document CHEMBL1795224, “Synthesis, in vitro antioxidant, anthelmintic and molecular docking studies of novel dichloro substituted benzoxazole-triazolo-thione derivatives” (2011).
